Test results as given in US10519134B2, “Pyrazole compounds and methods of making and using same” (Lundbeck La Jolla Research Center, Inc., priority 2015, dated 2019).

Experiments:
[1] = target: T1, MAGL (Mus musculus, UniProt O35678); test: In vitro competitive activity-based protein profiling (mouse), MAGL gel band; type: biochemical; conditions: for inhibition at 1 µM: read-out: MAGL % inh. 1 μM; for IC50: mouse
T1 construct: Proteomes (mouse brain membrane fraction or cell lysates); from tissue; host or cells: mouse brain membrane fraction (or cell lysates)
T1 sequence (O35678 1-303): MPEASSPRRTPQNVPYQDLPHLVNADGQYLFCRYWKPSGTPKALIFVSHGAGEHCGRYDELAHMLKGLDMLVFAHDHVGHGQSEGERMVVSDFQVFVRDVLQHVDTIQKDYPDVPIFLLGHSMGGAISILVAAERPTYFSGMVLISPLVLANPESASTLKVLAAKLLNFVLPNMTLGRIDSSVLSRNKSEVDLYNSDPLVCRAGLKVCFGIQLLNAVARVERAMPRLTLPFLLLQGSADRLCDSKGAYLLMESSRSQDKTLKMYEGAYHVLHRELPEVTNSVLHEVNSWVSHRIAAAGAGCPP
Procedure, shortened: (§1)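 Competitive ABPP: inhibitors at varying concentrations were given 30 min at 37 °C with mouse brain membranes or cell lysates (1.0 mg/mL total protein) before 30 min labelling by FP-Rh or HT-01 (stock 50 μM in DMSO). Residual hydrolase activity read as in-gel fluorescence of MAGL and FAAH bands.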

[2] = target: T1, MAGL; test: Mouse brain proteomes from inhibitor treated mice (oral gavage, sacrificed 4 h after administration); type: in vivo; conditions: read-out: MAGL % inh. 5 mg/kg
Procedure, shortened: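 Wild-type C57Bl/6J mice got compound by oral gavage in polyethylene glycol vehicle. Brain proteomes were prepared 4 h after dosing and analyzed for serine hydrolase activity.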

[3] = target: T2, FAAH (Mus musculus, UniProt O08914); test: In vitro competitive activity-based protein profiling (mouse), FAAH gel band; type: biochemical; conditions: for inhibition at 1 µM: read-out: FAAH % inh. 1 μM; for IC50: mouse
T2 construct: Proteomes (mouse brain membrane fraction or cell lysates); from tissue; host or cells: mouse brain membrane fraction (or cell lysates)
T2 sequence (O08914 1-579): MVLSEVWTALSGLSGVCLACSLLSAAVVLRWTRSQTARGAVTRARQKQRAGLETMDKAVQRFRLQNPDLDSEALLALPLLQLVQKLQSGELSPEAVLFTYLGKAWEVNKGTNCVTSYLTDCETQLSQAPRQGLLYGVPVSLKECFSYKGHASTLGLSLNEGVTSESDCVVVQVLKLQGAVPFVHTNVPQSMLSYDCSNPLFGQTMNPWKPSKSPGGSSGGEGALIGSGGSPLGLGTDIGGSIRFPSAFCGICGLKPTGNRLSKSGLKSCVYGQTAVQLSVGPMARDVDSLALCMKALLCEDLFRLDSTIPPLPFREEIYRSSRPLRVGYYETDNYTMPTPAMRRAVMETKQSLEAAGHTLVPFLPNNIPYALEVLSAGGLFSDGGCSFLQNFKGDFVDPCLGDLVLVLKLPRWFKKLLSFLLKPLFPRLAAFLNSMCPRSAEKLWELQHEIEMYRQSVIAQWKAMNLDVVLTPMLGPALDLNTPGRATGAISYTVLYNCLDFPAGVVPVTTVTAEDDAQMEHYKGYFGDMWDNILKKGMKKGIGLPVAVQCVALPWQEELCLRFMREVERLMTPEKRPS
Procedure, shortened: as §1

[4] = target: T3, MAGL (Homo sapiens, UniProt Q99685); test: In vitro competitive activity-based protein profiling (human), MAGL gel band; type: biochemical
T3 construct: Proteomes (human prefrontal cortex or cell membrane fractions); from tissue; host or cells: human prefrontal cortex (or cell membrane fractions)
T3 sequence (Q99685 1-303): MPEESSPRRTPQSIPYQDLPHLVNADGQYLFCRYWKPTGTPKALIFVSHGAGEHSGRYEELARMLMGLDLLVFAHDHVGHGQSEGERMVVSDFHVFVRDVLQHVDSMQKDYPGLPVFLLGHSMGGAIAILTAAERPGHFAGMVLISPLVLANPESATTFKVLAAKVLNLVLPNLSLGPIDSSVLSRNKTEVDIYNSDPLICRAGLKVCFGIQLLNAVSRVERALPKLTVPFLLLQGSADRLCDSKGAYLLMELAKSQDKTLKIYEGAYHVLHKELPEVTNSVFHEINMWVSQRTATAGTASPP
Procedure, shortened: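 Human prefrontal cortex or cell membrane proteomes (1.0-2.0 mg/mL protein) preincubated with inhibitors 30 min at 37° C, then labelled with FP-Rh or JW912 probe 30 min at room temperature. Residual MAGL activity read as fluorescent gel-band intensity after SDS-PAGE.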

Row | Structure (SMILES) | inhibition at 1 µM [1] [%] | inhibition at 5 mg/kg [2] [%] | inhibition at 1 µM [3] [%] | IC50 [4] [nM] | IC50 [1] [nM] | IC50 [3] [nM]
1 | CC(=O)N1CC2CCC(C1)N2c1cc(C(F)(F)F)ccc1CN1CCN(C(=O)n2ccc(NS(C)(=O)=O)n2)CC1 [Example 207, N-(1-(4-(2-(3-acetyl-3,8-diazabicyclo[3.2.1]octan-8-yl)-4-(trifluoromethyl)benzyl)piperazine-1-carbonyl)-1H-pyrazol-3-yl) methanesulfonamide] | ≥ 75 | 0 to 25 | 0 to 25 | ≤ 100 | – | –
2 | CS(=O)(=O)Nc1ccn(C(=O)N2CCN(Cc3cc(N4CCCC4)cc(C(F)(F)F)c3)CC2)n1 [Example 156, N-(1-(4-(3-(pyrrolidin-1-yl)-5-(trifluoromethyl)benzyl)piperazine-1-carbonyl)-1H-pyrazol-3-yl) methanesulfonamide] | ≥ 75 | ≥ 75 | 0 to 25 | ≤ 100 | ≤ 100 | 1000 to 10000
3 | CS(=O)(=O)Nc1ccn(C(=O)N2CCN(Cc3ccc(Cl)c(N4CCCC4)c3)CC2)n1 [Example 165, N-(1-(4-(4-chloro-3-(pyrrolidin-1-yl)benzyl)piperazine-1-carbonyl)-1H-pyrazol-3-yl) methanesulfonamide] | ≥ 75 | ≥ 75 | 0 to 25 | ≤ 100 | – | –
4 | CS(=O)(=O)Nc1ccn(C(=O)N2CCN(Cc3ccc(Cl)c(OC4CCOCC4)c3)CC2)n1 [Example 219, N-(1-(4-(4-chloro-3-((tetrahydro-2H-pyran-4-yl)oxy)benzyl)piperazine-1-carbonyl)-1H-pyrazol-3-yl) methanesulfonamide] | ≥ 75 | 25 to 50 | 0 to 25 | ≤ 100 | – | –
5 | CS(=O)(=O)Nc1ccn(C(=O)N2CCN(Cc3ccc(C(F)(F)F)cc3-c3nncs3)CC2)n1 [Example 114, N-(1-(4-(2-(1,3,4-thiadiazol-2-yl)-4-(trifluoromethyl)benzyl)piperazine-1-carbonyl)-1H-pyrazol-3-yl)methanesulfonamide] | ≥ 75 | 0 to 25 | 0 to 25 | ≤ 100 | – | –
6 | CS(=O)(=O)Nc1ccn(C(=O)N2CCN(Cc3ccc(C(F)(F)F)c(N4C5CCC4COC5)c3)CC2)n1 [Example 218, N-(1-(4-(3-(3-oxa-8-azabicyclo[3.2.1]octan-8-yl)-4-(trifluoromethyl)benzyl)piperazine-1-carbonyl)-1H-pyrazol-3-yl) methanesulfonamide] | ≥ 75 | 25 to 50 | 0 to 25 | ≤ 100 | – | –
7 | CC(=O)Nc1ccn(C(=O)N2CCC3(CCCN3Cc3ccc(Cl)c(C4CC4)c3)CC2)n1 [Example 111, N-(1-(1-(4-chloro-3-cyclopropylbenzyl)-1,8-diazaspiro[4.5]decane-8-carbonyl)-1H-pyrazol-3-yl)acetamide] | ≥ 75 | 0 to 25 | 0 to 25 | ≤ 100 | – | –
8 | CS(=O)(=O)Nc1ccn(C(=O)N2CCN(Cc3ccc(Cl)c(N4CC5COCC5C4)c3)CC2)n1 (centres unmarked) [Example 203, N-(1-(4-(4-chloro-3-(tetrahydro-1H-furo[3,4-c]pyrrol-5(3H)-yl)benzyl)piperazine-1-carbonyl)-1H-pyrazol-3-yl) methanesulfonamide] | ≥ 75 | 0 to 25 | 0 to 25 | ≤ 100 | ≤ 100 | 1000 to 10000
9 | CC(=O)Nc1ccn(C(=O)N2CCC3(CCCN3Cc3ccc(Cl)c(C)c3)CC2)n1 [Example 94, N-(1-(1-(4-chloro-3-methylbenzyl)-1,8-diazaspiro[4.5]decane-8-carbonyl)-1H-pyrazol-3-yl)acetamide] | ≥ 75 | ≥ 75 | 0 to 25 | ≤ 100 | ≤ 100 | 1000 to 10000
10 | CS(=O)(=O)Nc1ccn(C(=O)N2CCN(Cc3ccc(Cl)c(N4C5CCC4COC5)c3)CC2)n1 [Example 204, N-(1-(4-(3-(3-oxa-8-azabicyclo[3.2.1]octan-8-yl)-4-chlorobenzyl)piperazine-1-carbonyl)-1H-pyrazol-3-yl) methanesulfonamide] | ≥ 75 | 0 to 25 | 0 to 25 | ≤ 100 | 100 to 1000 | 1000 to 10000
11 | CC1CCCN1c1cc(CN2CCN(C(=O)n3ccc(NS(C)(=O)=O)n3)CC2)ccc1Cl (centres unmarked) [Example 200, N-(1-(4-(4-chloro-3-(2-methylpyrrolidin-1-yl)benzyl)piperazine-1-carbonyl)-1H-pyrazol-3-yl) methanesulfonamide] | ≥ 75 | ≥ 75 | 0 to 25 | ≤ 100 | – | –
12 | CS(=O)(=O)Nc1ccn(C(=O)N2CCC3(CCCN3Cc3ccc(C(F)(F)F)cc3N3C[C@H]4CC[C@@H](C3)O4)CC2)n1 [Example 136, N-(1-(1-(2-((1R,5S)-8-oxa-3-azabicyclo[3.2.1]octan-3-yl)-4-(trifluoromethyl)benzyl)-1,8-diazaspiro[4.5]decane-8-carbonyl)-1H-pyrazol-3-yl) methanesulfonamide] | ≥ 75 | 0 to 25 | 0 to 25 | ≤ 100 | 100 to 1000 | 1000 to 10000
13 | CS(=O)(=O)Nc1ccn(C(=O)N2CCN(Cc3ccc(N4CCCC4)c(C(F)(F)F)c3)CC2)n1 [Example 152, N-(1-(4-(4-(pyrrolidin-1-yl)-3-(trifluoromethyl)benzyl)piperazine-1-carbonyl)-1H-pyrazol-3-yl) methanesulfonamide] | ≥ 75 | ≥ 75 | 0 to 25 | ≤ 100 | ≤ 100 | 1000 to 10000
14 | CC(=O)Nc1ccn(C(=O)N2CCN(Cc3ccc(Cl)cc3N3CCN(S(C)(=O)=O)CC3)CC2)n1 [Example 52, N-(1-(4-(4-chloro-2-(4-(methylsulfonyl)piperazin-1-yl)benzyl)piperazine-1-carbonyl)-1H-pyrazol-3-yl)acetamide] | ≥ 75 | 0 to 25 | 0 to 25 | ≤ 100 | ≤ 100 | 1000 to 10000
15 | CC(=O)Nc1ccn(C(=O)N2CCC3(CCCN3Cc3ccc(C)c(Cl)c3)CC2)n1 [Example 96, N-(1-(1-(3-chloro-4-methylbenzyl)-1,8-diazaspiro[4.5]decane-8-carbonyl)-1H-pyrazol-3-yl)acetamide] | ≥ 75 | ≥ 75 | 0 to 25 | ≤ 100 | ≤ 100 | 1000 to 10000
16 | CS(=O)(=O)Nc1ccn(C(=O)N2CCN(Cc3cccc(Cl)c3N3CC4CCC(C3)O4)CC2)n1 [Example 288, N-(1-(4-(2-(8-oxa-3-azabicyclo[3.2.1]octan-3-yl)-3-chlorobenzyl)piperazine-1-carbonyl)-1H-pyrazol-3-yl) methanesulfonamide] | ≥ 75 | 0 to 25 | 0 to 25 | ≤ 100 | ≤ 100 | 1000 to 10000
17 | CS(=O)(=O)Nc1ccn(C(=O)N2CCN(Cc3ccc(Cl)c(-c4nccs4)c3)CC2)n1 [Example 221, N-(1-(4-(4-chloro-3-(thiazol-2-yl)benzyl)piperazine-1-carbonyl)-1H-pyrazol-3-yl) methanesulfonamide] | ≥ 75 | 0 to 25 | 0 to 25 | ≤ 100 | – | –
